The source of these data is patent publication US12410136B2, “Pyridinyl morpholine compound, preparation method therefor, and application thereof” (SHANGHAI ZHONGZE THERAPEUTICS, CO. LTD., priority 2020, dated 2025).

Experiment [1] deals with T1, human recombinant D3 receptor (Homo sapiens, UniProt P35462).
T1 construct: expressed in transfected cells; host or cells: CHO
Nature of the experiment: Dopamine D3 receptor binding test. As to conditions: [3H]methyl-spiperone 0.3 nM, human recombinant D3 receptor expressed in CHO cells; read-out: Affinity of the compound for each receptor (Ki value, nM) D3. The protocol:
Dopamine D3 Receptor Binding Test
[^3H]methyl-spiperone (0.3 nM) was used as the ligand, and (+)-butaclamol (10 μM) was used to determine the non-specific binding, and the binding assay was performed on human recombinant D3 receptor (expressed in CHO cells).

The target in a further experiment is T2, 5-HT2A receptor (Homo sapiens, UniProt P28223).
T2 construct: expressed in transfected cells; host or cells: HEK293
As to the kind of experiment: 5-HT2A receptor binding test. As to conditions: [3H]-Ketanserin, 5-HT2A receptor expressed in HEK293 cells; read-out: Affinity of the compound for each receptor (Ki value, nM) 5-HT2A. The text has this:
5-HT2A Receptor Binding Test
Beckman LS-6500 multifunctional liquid scintillation counter.
Tris-HCl reaction buffer (pH 7.7) was used to resuspend in the experiment.

The target of another experiment is T3, H1 receptor (Homo sapiens, UniProt P35367).
T3 construct: expressed in transfected cells; host or cells: HEK-293
Nature of the experiment: H1 receptor binding test. As to conditions: 1 nM [3H]pyrilamine, HEK-293 cell membrane homogenate; read-out: Affinity of the compound for H1 receptor (Ki value, nM) H1. The protocol: Non-specific binding was determined in the presence of 1 μM pyrilamine.

The target in the next experiment is D2 receptor (Homo sapiens, UniProt P14416). Nature of the experiment: Dopamine D2 receptor binding test.
Chain of D2 receptor (P14416 whole entry): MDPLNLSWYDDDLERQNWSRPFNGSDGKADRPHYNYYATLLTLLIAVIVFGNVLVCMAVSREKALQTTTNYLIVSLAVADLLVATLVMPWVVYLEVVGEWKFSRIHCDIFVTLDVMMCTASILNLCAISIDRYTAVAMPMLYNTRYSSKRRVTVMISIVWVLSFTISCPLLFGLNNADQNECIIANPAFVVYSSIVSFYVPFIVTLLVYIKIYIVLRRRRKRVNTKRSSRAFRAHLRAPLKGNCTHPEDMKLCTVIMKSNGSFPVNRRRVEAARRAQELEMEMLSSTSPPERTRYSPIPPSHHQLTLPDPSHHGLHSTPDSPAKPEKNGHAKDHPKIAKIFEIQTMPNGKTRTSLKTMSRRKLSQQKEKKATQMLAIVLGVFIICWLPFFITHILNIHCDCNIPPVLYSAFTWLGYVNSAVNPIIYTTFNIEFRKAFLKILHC

T1 sequence (P35462 whole entry): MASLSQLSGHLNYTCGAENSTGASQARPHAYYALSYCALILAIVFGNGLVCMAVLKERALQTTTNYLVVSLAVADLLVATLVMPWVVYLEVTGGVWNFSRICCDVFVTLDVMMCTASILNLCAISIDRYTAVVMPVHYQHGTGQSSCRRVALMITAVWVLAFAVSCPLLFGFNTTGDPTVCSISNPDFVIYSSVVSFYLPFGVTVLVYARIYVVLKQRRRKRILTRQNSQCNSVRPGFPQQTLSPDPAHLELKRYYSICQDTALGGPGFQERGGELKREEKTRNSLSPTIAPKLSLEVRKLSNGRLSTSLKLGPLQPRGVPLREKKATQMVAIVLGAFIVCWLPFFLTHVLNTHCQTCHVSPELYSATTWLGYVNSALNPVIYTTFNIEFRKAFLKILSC
T2 sequence (P28223 whole entry): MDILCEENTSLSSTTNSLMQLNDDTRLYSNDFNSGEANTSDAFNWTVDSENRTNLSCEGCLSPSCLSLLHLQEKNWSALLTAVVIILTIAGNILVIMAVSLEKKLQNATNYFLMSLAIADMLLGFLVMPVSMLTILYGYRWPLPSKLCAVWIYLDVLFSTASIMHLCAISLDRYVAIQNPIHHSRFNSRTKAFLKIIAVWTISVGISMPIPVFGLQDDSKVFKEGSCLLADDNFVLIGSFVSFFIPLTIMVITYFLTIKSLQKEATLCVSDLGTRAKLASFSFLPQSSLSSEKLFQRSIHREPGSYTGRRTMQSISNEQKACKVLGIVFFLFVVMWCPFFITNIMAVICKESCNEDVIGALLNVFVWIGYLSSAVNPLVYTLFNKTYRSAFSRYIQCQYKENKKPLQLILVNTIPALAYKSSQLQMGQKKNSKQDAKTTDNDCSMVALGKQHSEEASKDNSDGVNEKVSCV
T3 sequence (P35367 whole entry): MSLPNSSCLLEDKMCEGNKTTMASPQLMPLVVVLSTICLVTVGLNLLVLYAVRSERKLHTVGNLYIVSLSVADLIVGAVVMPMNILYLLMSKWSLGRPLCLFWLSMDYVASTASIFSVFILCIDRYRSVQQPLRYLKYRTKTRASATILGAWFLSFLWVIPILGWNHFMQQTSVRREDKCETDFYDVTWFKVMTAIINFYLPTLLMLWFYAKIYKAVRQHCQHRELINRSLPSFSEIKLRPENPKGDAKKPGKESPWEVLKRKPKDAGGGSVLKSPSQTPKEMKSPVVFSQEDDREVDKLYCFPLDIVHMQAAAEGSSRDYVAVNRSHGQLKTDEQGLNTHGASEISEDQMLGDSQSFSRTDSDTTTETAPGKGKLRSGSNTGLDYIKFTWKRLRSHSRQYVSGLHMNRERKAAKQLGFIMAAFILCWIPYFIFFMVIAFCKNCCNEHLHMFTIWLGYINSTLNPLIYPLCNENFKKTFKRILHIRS
Description for D2 receptor: Dopamine D2 Receptor Binding Test
In this experiment, HEK293 cells were transfected with plasmid vector containing D2 receptor protein gene, and calcium phosphate transfection method was used and after transfection, the cells were cultured in a culture solution containing G418, and the cell monoclonal and radioligand binding experiments were selected, and finally a stable cell line which could stably express D2 receptor protein was obtained.
HeK-293 cells were infected with recombinant viruses containing the above various genes respectively, and after 48-72 hours, the receptor proteins were expressed in large quantities on the membrane, and the cells were centrifuged at 1000 rpm for 5 min and then the culture solution was discarded, and the cells were collected, and stored in a −20° C. refrigerator for later use. Tris-HCl reaction buffer (pH=7.5) was used to resuspend in the experiment.
On the Millipore cell sample collector, the mixture was quickly filtrated under reduced pressure through GF/C glass fiber filter paper, and eluted with 3 mL of eluent (50 mMTris-HCl, pH 7.5) for 3 times, then dried under microwave for 5 to 6 min. The filter paper was moved into a 0.5 mL centrifuge tube, and 500 μL of lipid-soluble scintillation solution was added. The mixture was kept in the dark for more than 30 min, and the radioactivity intensity was determined by counting. […] Two replicate tubes were made for each experiment of compound, and two separate experiments were performed.
Two tubes were tested for each concentration and two independent tests were performed for each compound.

In the case of `COc1ccc(-c2cc(N3CCOCC3)nc(N3CCN(CC[C@H]4CC[C@H](NC(=O)N5CCCC5)CC4)CC3)c2)cc1` [III-1, N-(trans-4-(2-(4-(4-(4-methoxyphenyl)-6-morpholinopyridin-2-yl)piperazin-1-yl)ethyl)cyclohexyl)tetrahydropyrrole-1-carboxamide], the Ki in experiment [1] is 0.2 nM; at 5-HT2A receptor, 10.8 nM; at H1 receptor, more than 1000 nM; on D2 receptor it was 3.2 nM.

In the case of `CC(C)N(C(=O)N[C@H]1CC[C@H](CCN2CCN(c3cc(-c4cccnc4)cc(N4CCOCC4)n3)CC2)CC1)C(C)C` [IV-4], the Ki came out at 0.08 nM in experiment [1], 8.7 nM on 5-HT2A receptor, 670 nM at H1 receptor and 1.7 nM on D2 receptor.

As for `CNC(=O)N[C@H]1CC[C@H](CCN2CCN(c3cc(-c4ccc(F)cc4)cc(N4CCOCC4)n3)CC2)CC1` [II-4, 1-(trans-4-(2-(4-(4-(4-fluorophenyl)-6-morpholinopyridin-2-yl)piperazin-1-yl)ethyl)cyclohexyl)-3-methylurea], the Ki in experiment [1] was 0.3 nM; at 5-HT2A receptor, 0.9 nM; at H1 receptor, 540 nM; on D2 receptor it was 2.8 nM.

`O=C(N[C@H]1CC[C@H](CCN2CCN(c3cc(-c4ccc(F)cc4)cc(N4CCOCC4)n3)CC2)CC1)c1ccco1` [II-3, N-(trans-4-(2-(4-(4-(4-fluorophenyl)-6-morpholinopyridin-2-yl)piperazin-1-yl)ethyl)cyclohexyl)furan-2-carboxamide]: the Ki worked out at 0.09 nM in experiment [1], 1.2 nM at 5-HT2A receptor, 980 nM on H1 receptor and 1.4 nM at D2 receptor.

On to `CN(C)C(=O)N[C@H]1CC[C@H](CCN2CCN(c3cc(-c4ccco4)cc(N4CCOCC4)n3)CC2)CC1` [Compound V-3, 3-(trans-4-(2-(4-(4-(furan-2-yl)-6-morpholinopyridin-2-yl)piperazin-1-yl)ethyl)cyclohexyl)-1,1-dimethylurea], for which the inhibition constant (Ki) in experiment [1] came out at 0.07 nM; at 5-HT2A receptor, 5 nM; at H1 receptor it was 800 nM; on D2 receptor, 7.1 nM.

With `O=C(N[C@H]1CC[C@H](CCN2CCN(c3cc(-c4ccco4)cc(N4CCOCC4)n3)CC2)CC1)N1CCCCC1` [Compound V-4, N-(trans-4-(2-(4-(4-(furan-2-yl)-6-morpholinopyridin-2-yl)piperazin-1-yl)ethyl)cyclohexyl)piperidine-1-carboxamide], the inhibition constant Ki in experiment [1] was 0.3 nM; at 5-HT2A receptor, 2.8 nM; at H1 receptor, more than 1000 nM; on D2 receptor, 10.6 nM.

As for `CN(C)C(=O)N[C@H]1CC[C@H](CCN2CCN(c3cc(-c4ccc(F)cc4)cc(N4CCOCC4)n3)CC2)CC1` [II-5, 3-(trans-4-(2-(4-(4-(4-fluorophenyl)-6-morpholinopyridin-2-yl)piperazin-1-yl)ethyl)cyclohexyl)-1,1-dimethylurea], the Ki at H1 receptor was 300 nM.

With `COc1ccc(-c2cc(N3CCOCC3)nc(N3CCN(CC[C@H]4CC[C@H](NC(=O)N5CCCCC5)CC4)CC3)c2)cc1` [III-3, N-(trans-4-(2-(4-(4-(4-methoxyphenyl)-6-morpholinopyridin-2-yl)piperazin-1-yl)ethyl)cyclohexyl)piperidine-1-carboxamide], the Ki in experiment [1] was 0.5 nM; on 5-HT2A receptor, 12.5 nM; at H1 receptor, more than 1000 nM; on D2 receptor it was 4.6 nM.

As to `CN(C)C(=O)N[C@H]1CC[C@H](CCN2CCN(c3cc(-c4cccnc4)cc(N4CCOCC4)n3)CC2)CC1` [IV-3], the Ki in experiment [1] was determined as 0.1 nM; at 5-HT2A receptor, 3.6 nM; at H1 receptor it was 790 nM; on D2 receptor, 2 nM.

With `CC(=O)N[C@H]1CC[C@H](CCN2CCN(c3cc(-c4ccccc4)cc(N4CCOCC4)n3)CC2)CC1` [Compound I-1, N-(trans-4-(2-(4-(6-morpholino-4-phenylpyridin-2-yl)piperazin-1-yl)ethyl)cyclohexyl)acetamide], the Ki in experiment [1] is 0.2 nM; at 5-HT2A receptor, 1.7 nM; at H1 receptor it was 760 nM; at D2 receptor it was 3.1 nM.

In the case of `COc1ccc(-c2cc(N3CCOCC3)nc(N3CCN(CC[C@H]4CC[C@H](NC(=O)N5CCOCC5)CC4)CC3)c2)cc1` [III-2, N-(trans-4-(2-(4-(4-(4-methoxyphenyl)-6-morpholinopyridin-2-yl)piperazin-1-yl)ethyl)cyclohexyl)morpholine-4-carboxamide], the Ki is 0.07 nM in experiment [1], 5.1 nM at 5-HT2A receptor, more than 1000 nM on H1 receptor and 1.9 nM at D2 receptor.

For `CCC(=O)N[C@H]1CC[C@H](CCN2CCN(c3cc(-c4cccnc4)cc(N4CCOCC4)n3)CC2)CC1` [IV-1], the Ki is 0.05 nM in experiment [1], 2.7 nM on 5-HT2A receptor, more than 1000 nM at H1 receptor and 2.5 nM on D2 receptor.

Consider `O=C(N[C@H]1CC[C@H](CCN2CCN(c3cc(-c4ccc[nH]4)cc(N4CCOCC4)n3)CC2)CC1)c1ccco1` [VII-2, N-(trans-4-(2-(4-(6-morpholino-4-(1H-pyrrol-2-yl)pyridin-2-yl)piperazin-1-yl)ethyl)cyclohexyl)furan-2-carboxamide], for which the Ki in experiment [1] was 0.1 nM; on 5-HT2A receptor, 0.7 nM; on H1 receptor, 600 nM; at D2 receptor, 2.6 nM.

Regarding `O=C(N[C@H]1CC[C@H](CCN2CCN(c3cc(-c4ccc[nH]4)cc(N4CCOCC4)n3)CC2)CC1)N1CCCCC1` [VII-5, N-(trans-4-(2-(4-(6-morpholino-4-(1H-pyrrol-2-yl)pyridin-2-yl)piperazin-1-yl)ethyl)cyclohexyl)piperidine-1-carboxamide], the inhibition constant Ki in experiment [1] is 0.3 nM; at 5-HT2A receptor it was 7.9 nM; on H1 receptor, more than 1000 nM; on D2 receptor it was 4 nM.

Regarding `CCCC(=O)N[C@H]1CC[C@H](CCN2CCN(c3cc(-c4ccccc4)cc(N4CCOCC4)n3)CC2)CC1` [Compound I-2, N-(trans-4-(2-(4-(6-morpholino-4-phenylpyridin-2-yl)piperazin-1-yl)ethyl)cyclohexyl)butyramide], the Ki in experiment [1] amounted to 0.1 nM; at 5-HT2A receptor, 1.9 nM; on H1 receptor, 950 nM; on D2 receptor, 1.2 nM.

As for `O=C(N[C@H]1CC[C@H](CCN2CCN(c3cc(-c4ccccc4)cc(N4CCOCC4)n3)CC2)CC1)C1CC1` [Compound I-4, N-((trans)-4-(2-(4-(6-morpholino-4-phenylpyridin-2-yl)piperazin-1-yl)ethyl)cyclohexyl)cyclopropanecarboxamide], the Ki in experiment [1] worked out at 0.05 nM; on 5-HT2A receptor it was 3.9 nM; on H1 receptor it was 550 nM; on D2 receptor, 2 nM.

On to `O=C(N[C@H]1CC[C@H](CCN2CCN(c3cc(-c4cccs4)cc(N4CCOCC4)n3)CC2)CC1)c1cccnc1` [VI-3, N-(trans-4-(2-(4-(6-morpholino-4-(thiophen-2-yl)pyridin-2-yl)piperazin-1-yl)ethyl)cyclohexyl)nicotinamide], for which the Ki was 0.8 nM in experiment [1], 1.7 nM on 5-HT2A receptor, 740 nM at H1 receptor and 1.9 nM on D2 receptor.

On to `O=C(N[C@H]1CC[C@H](CCN2CCN(c3cc(-c4ccc[nH]4)cc(N4CCOCC4)n3)CC2)CC1)C1CCCCC1` [VII-3, N-(trans-4-(2-(4-(6-morpholino-4-(1H-pyrrol-2-yl)pyridin-2-yl)piperazin-1-yl)ethyl)cyclohexyl)cyclohexanecarboxamide], for which the Ki on 5-HT2A receptor worked out at 3.8 nM; on H1 receptor, 870 nM; on D2 receptor it was 5.1 nM.

For `O=C(N[C@H]1CC[C@H](CCN2CCN(c3cc(-c4ccccc4)cc(N4CCOCC4)n3)CC2)CC1)C1CCCCC1` [Compound I-5], the Ki is 0.9 nM in experiment [1], 1.1 nM on 5-HT2A receptor, more than 1000 nM on H1 receptor and 8.6 nM at D2 receptor.

For `O=C(N[C@H]1CC[C@H](CCN2CCN(c3cc(-c4cccs4)cc(N4CCOCC4)n3)CC2)CC1)C1CC1` [VI-2, N-(trans-4-(2-(4-(6-morpholino-4-(thiophen-2-yl)pyridin-2-yl)piperazin-1-yl)ethyl)cyclohexyl)cyclopropanecarboxamide], the Ki in experiment [1] is 0.08 nM; at 5-HT2A receptor, 2.1 nM; on H1 receptor, more than 1000 nM; at D2 receptor, 1.3 nM.

As to `COCC(=O)N[C@H]1CC[C@H](CCN2CCN(c3cc(-c4ccco4)cc(N4CCOCC4)n3)CC2)CC1` [Compound V-2, N-(trans-4-(2-(4-(4-(furan-2-yl)-6-morpholinopyridin-2-yl)piperazin-1-yl)ethyl)cyclohexyl)-2-methoxyacetamide], the Ki came out at 8.8 nM at 5-HT2A receptor, 740 nM on H1 receptor and 15.2 nM on D2 receptor.

Take `CN(C)C(=O)N[C@H]1CC[C@H](CCN2CCN(c3cc(-c4ccccc4)cc(N4CCOCC4)n3)CC2)CC1` [Compound I-7, 1,1-dimethyl-3-(trans-4-(2-(4-(6-morpholino-4-phenylpyridin-2-yl)piperazin-1-yl)ethyl)cyclohexyl)urea]: the Ki in experiment [1] came to 0.01 nM; on 5-HT2A receptor, 0.2 nM; on H1 receptor, 420 nM; at D2 receptor, 0.12 nM.

As to `COc1ccc(-c2cc(N3CCOCC3)nc(N3CCN(CC[C@H]4CC[C@H](NC(=O)N5CCN(C)CC5)CC4)CC3)c2)cc1` [III-4, N-(trans-4-(2-(4-(4-(4-methoxyphenyl)-6-morpholinopyridin-2-yl)piperazin-1-yl)ethyl)cyclohexyl)-4-methylpiperazine-1-carboxamide], the Ki at 5-HT2A receptor came out at 6.6 nM; on H1 receptor, 980 nM; at D2 receptor, 11.8 nM.
